Test results: patent US10266520B2, “Bisamidinium-based inhibitors for the treatment of myotonic dystrophy” (The Board of Trustees of the University of Illinois, priority 2014, dated 2019)

Key:
MBNL1-(CUG)16 complex = test: EMSA inhibition of the MBNL1-(CUG)16 complex; format: biochemical; settings: for Ki: KI=IC50×KD/[protein]total, read-out: KI, apparent inhibition constant, MBNL1-(CUG)16 complex
Method: FIG. 1A-B. Determination of inhibition constants, KI, by EMSA. (a) Representative gels showing the release of (CUG)16 at different ligand concentrations. Top band is the MBNL1-(CUG)16 complex, the bottom band is the free (CUG)16. (b) IC50 values were obtained by plotting the RNA fraction bound versus ligand concentrations. The apparent inhibition constant (KI) was calculated using the equation: KI=IC50×KD/[protein]total, where KD is the dissociation constant of the MBNL1-RNA complex and [protein] is at least 7-fold greater than the KD. Error bars represent standard deviation of three independent experiments.
An electrophoretic mobility shift assay (EMSA) was employed to determine the in vitro inhibition of MBNL1-rCUG^exp complex by monomer 1a and dimers 2a-b (FIG. 1). This study used (CUG)16, which can form a hairpin structure containing a maximum of 8 U-U mismatches. […] Likely, a 1:1 complex was formed. In this study, a truncated MBNL1 (1-272 amino acids) containing four zinc finger motifs of MBNL1 and a hexahistidine tag (C-terminus) was employed. This MBNL1 construct and the full-length MBNL1 have the similar affinities to rCUG repeats.
To determine the inhibition constant of bivalent ligands 2a and 2b, the MBNL1-(CUG)16 mixture, in which ca. 50% of the RNA is free, was incubated with various concentrations of ligand (FIG. 1a). The dimer concentrations were not raised to higher than 10 μM due to the aggregation on the gel at high concentrations. As the concentration of ligand increased, more RNA was released from the complex with MBNL protein. By fitting the plot of bound RNA fractions versus ligand concentrations with an appropriate equation, the IC50 value was determined (FIG. 1b).
(CUG)16 RNA was labeled with [γ-^32P]-ATP using T4 poly-nucleotide kinase (New England Biolabs). Labeled RNA was purified by phenol extraction and ethanol precipitation. Labeled RNA was heated at 95° C. for 5 min, then placed on ice for 10 min and diluted in protein binding buffer (175 mM NaCl, 5 mM MgCl2, 20 mM Tris-HCl (pH 8), 1.25 mM 2-mercapto-ethanol (BME), 12.5% glycerol, 2 mg/ml bovine serum albumin (BSA), 0.1 mg/ml heparin, 0.05% or 0.1% Triton X). For MBNL1-(CUG)16 binding study, MBNL1 was serially diluted by a factor of 3 in protein binding buffer. To each solution was added labeled RNA, so that the final concentration of RNA was 0.2 nM. The resulting mixtures were incubated at room temperature for 10 min and loaded onto a 6% polyacrylamide gel (80:1) at 4° C. The gel was run for 2 h at 180 V in Tris-Borate 0.5× buffer (pH 8.2-8.3). Gels were dried at 80° C. under high vacuum for 2 h, developed overnight in phosphor exposure cassette, and visualized on a Molecular Dynamics Storm PhosphorImager. The KD (1:1 stoichiometry assumption) was obtained by fitting the normalized fraction RNA bound versus the concentration of protein using the equation: Fraction RNA bound=Bmax×[MBNL1]total^h/(KD^h+MBNL1]total^h) where Bmax is maximum fraction RNA bound, h is a Hill slope. Protein concentration in reaction mixture was larger than 10-fold excess over RNA concentration. Data is illustrated in FIGS. 6 and 7.

[1] = system: Drosophila larvae (24B-GAL4>UAS-i(CTG)480; (CTG)60 control); test: Larval crawling assay; format: in vivo; settings: for mobility of normal larvae: 400 μM in fly food, control (CTG)60 larvae
Method: FIG. 4A-C. Efficacy of 1a and 2a in DM1 Drosophilia fly mode. (a) Improvement in adult rough eye phenotype. Each experiment was conducted in triplicate. (b) Effect of ligands on the control Drosophilia larvae (24B−GAL4>UAS−(CTG)60). (c) Dose-dependent effect of ligands on the DM1 larvae (24B−GAL4>UAS−i(CTG)480). Each experiment was conducted in triplicate, 10 individual larvae for each trial. Error bars represent standard deviation, two tail t-test *P<0.05, **P<0.01, ***P<0.001.
An individual larva generated from transgenic flies was placed on a Petri dish over graph paper, and the number of grid lines crossed by the larva in 1 min was recorded.
Drosophila lines were cultured in standard cornmeal medium supplemented with dry yeasts. Fly lines bearing UAS-(CTG)60 and UAS-(CTG)480 were kind gifts of Prof. Rubén Artero Allepuz (Universitate de València, Estudi General, Spain). The gmr-GAL4 and […] lines were used to drive UAS transgene expression in eye and muscles respectively. Ligands 1a and 2a were dissolved in ddH2O and mixed with fly food. Genetic crosses were set up in drug-containing fly food at 21.5° C. for external eye assay, and at 25° C. for larval crawling assay.
Larval crawling assay was performed as previously described (Lanson et al., Hum. Mol. Genet. 2011, 20, 2510-2523). Ten wandering third instar larvae were washed in ddH2O and placed on a 2% agarose gel in a 15-cm Petri dish with gridlines spaced at 0.5 cm. The larvae were allowed to acclimate for a period of 1 min, and the total number of gridlines that the posterior end of the larvae passes in 1 min was determine. Each set of experiment was repeated independently for three times using larvae collected from separate genetic crosses.

N=C(NCCCCNc1nc(N)nc(N)n1)c1ccc(C(=N)NCCCCNc2nc(N)nc(N)n2)cc1 [Compound 1a]
IC50 (MBNL1-(CUG)16 complex; EMSA): 189 ± 33 µM
KI of 1a relative to that for 2a and 2b (fold higher) (MBNL1-(CUG)16 complex; EMSA, identical conditions): ~1000 fold
Ki (MBNL1-(CUG)16 complex; EMSA): 16 ± 6 µM
crawling defect rescued ([1]; 100 μM, DM1 larvae): ca. 14%
crawling defect rescued ([1]; 200 μM, DM1 larvae): ~54%
mobility of normal larvae [1]: the mobility is not affected
crawling defect rescued ([1]; 400 μM, DM1 larvae): ~84%

N=C(NCCCCNc1nc(N)nc(N)n1)c1ccc(C(=N)NCCCCNc2nc(N)nc(NCCCn3cc(CNc4nc(N)nc(NCCCCNC(=N)c5ccc(C(=N)NCCCCNc6nc(N)nc(N)n6)cc5)n4)nn3)n2)cc1 [Compound 2a]
inhibitory power toward the MBNL1-rCUG^exp interaction relative to compound 1a (fold greater) (MBNL1-(CUG)16 complex): ca. 1000 fold
IC50 (MBNL1-(CUG)16 complex; EMSA): 0.29 ± 0.03 µM
Ki (MBNL1-(CUG)16 complex; EMSA): 0.025 ± 0.008 µM
improvement in the DM1 larva's mobility ([1]; 20 μM, DM1 larvae): 37%
crawling defect rescued ([1]; 100 μM, DM1 larvae): nearly full recovered
mobility of normal larvae [1]: the mobility is not affected
